What follows are compounds tested on SARS-CoV-2 strain USA-WA1/2020 (assay: microbe, parasite or virus in culture). Conditions: Severe acute respiratory syndrome coronavirus 2, HeLa-ACE2, 24 h, HeLa-ACE2 cells, SARS-CoV-2 infection, 24 h; cells given as a bound; read-out: EC50, uM (Hela).
Assay type: cell-based

`CC(C)C[C@H](NC(=O)Cc1cccc(Cl)c1)C(=O)N[C@@H](C[C@@H]1CCNC1=O)C(=O)COc1c(F)c(F)cc(F)c1F` [Compound 144, (S)-2-(2-(3-chlorophenyl)acetamido)-4-methyl-N—((S)-3-oxo-1-((S)-2-oxopyrrolidin-3-yl)-4-(2,3,5,6-tetrafluorophenoxy)butan-2-yl)pentanamide] and `CC(C)C[C@H](NC(=O)C(=O)Nc1ccccc1F)C(=O)N[C@@H](CC1CCCCC1)C(=O)COc1c(F)c(F)cc(F)c1F` [Compound 80, N1-((S)-1-(((S)-1-cyclohexyl-3-oxo-4-(2,3,5,6-tetrafluorophenoxy)butan-2-yl)amino)-4-methyl-1-oxopentan-2-yl)-N2-(2-fluorophenyl)oxalamide] cannot be ordered by EC50: over 1 µM for the first, over 1 µM for the second.

Same assay, conditions: Severe acute respiratory syndrome coronavirus 2, HeLa-ACE2, 24 h, HeLa-ACE2 cells, SARS-CoV-2 infection, 24 h; class symbols; read-out: EC50, uM (Hela)

`CC(C)[C@@H](O)C(=O)N1CC2(CC2)C[C@H]1C(=O)N[C@@H](C[C@@H]1CCNC1=O)C(=O)COC(F)(F)F` [Compound 356, (S)-5-((R)-2-hydroxy-3-methylbutanoyl)-N-((S)-3-oxo-1-((S)-2-oxopyrrolidin-3-yl)-4-(trifluoromethoxy)butan-2-yl)-5-azaspiro[2.4]heptane-6-carboxamide] and `CC(C)[C@H](O)C(=O)N1CC2(CC2)C[C@H]1C(=O)N[C@@H](C[C@@H]1CCNC1=O)C(=O)COC(F)(F)F` [Compound 358, (S)-5-((S)-2-hydroxy-3-methylbutanoyl)-N-((S)-3-oxo-1-((S)-2-oxopyrrolidin-3-yl)-4-(trifluoromethoxy)butan-2-yl)-5-azaspiro-[2.4]heptane-6-carboxamide] fall in the same range of EC50: 0.05 to 0.2 µM for the first, 0.05 to 0.2 µM for the second.

`CC(C)C[C@H](NC(=O)C(=O)NCc1cc(Cl)ccc1Cl)C(=O)N[C@@H](C[C@@H]1CCNC1=O)C(=O)COc1c(F)c(F)cc(F)c1F` [Compound 59, Nl-(2,5-dichlorobenzyl)-N2-((S)-4-methyl-1-oxo-1-(((S)-3-oxo-1-((S)-2-oxopyrrolidin-3-yl)-4-(2,3,5,6-tetrafluorophenoxy)butan-2-yl)amino)pentan-2-yl)oxalamide] and `COc1ccc(C[C@H](NC(=O)c2cc3cc(F)ccc3[nH]2)C(=O)N[C@@H](CC2CCNC2=O)C(=O)COc2c(F)c(F)cc(F)c2F)cc1` (stereo partly drawn) [Compound 19, 5-fluoro-N-((2S)-3-(4-methoxyphenyl)-1-oxo-1-(((2S)-3-oxo-1-(2-oxopyrrolidin-3-yl)-4-(2,3,5,6-tetrafluorophenoxy)butan-2-yl)amino)propan-2-yl)-1H-indole-2-carboxamide] fall in the same range of EC50: 0.2 to 0.5 µM for the first, 0.2 to 0.5 µM for the second.

`O=C1NCC[C@H]1C[C@H](NC(=O)[C@@H]1[C@H]2CCC[C@H]2CN1C(=O)[C@H](O)CC1CC1)C(=O)COC(F)(F)F` [Compound 393, (1S,3aR,6aS)-2-((R)-3-cyclopropyl-2-hydroxypropanoyl)-N-((S)-3-oxo-1-((S)-2-oxopyrrolidin-3-yl)-4-(trifluoromethoxy)butan-2-yl)octahydrocyclo-penta[c]pyrrole-1-carboxamide] and `O=C(N[C@@H](CC1CC1)C(=O)N[C@@H](C[C@@H]1CCNC1=O)C(=O)COC(F)(F)F)c1cc(-c2ccccc2F)on1` [Compound 160, N-((S)-3-cyclopropyl-1-oxo-1-(((S)-3-oxo-1-((S)-2-oxopyrrolidin-3-yl)-4-(trifluoromethoxy)butan-2-yl)amino)propan-2-yl)-5-(2-fluorophenyl)isoxazole-3-carboxamide] cannot be ordered by EC50: under 0.05 µM for the first, under 0.05 µM for the second.

`CC(C)C[C@H](NC(=O)C(=O)NC(C)(C)C(F)F)C(=O)N[C@@H](C[C@@H]1CCNC1=O)C(=O)COC(F)(F)F` [Compound 246, N1-(1,1-difluoro-2-methylpropan-2-yl)-N2-((S)-4-methyl-1-oxo-1-(((S)-3-oxo-1-((S)-2-oxopyrrolidin-3-yl)-4-(trifluoromethoxy)butan-2-yl)amino)pentan-2-yl)oxalamide] gave an EC50 of under 0.05 µM.

Same assay, conditions: Severe acute respiratory syndrome coronavirus 2, HeLa-ACE2, 24 h, HeLa-ACE2 cells, SARS-CoV-2 infection, 24 h; read-out: EC50, uM (Hela)

`O=C1NCC[C@H]1C[C@H](NC(=O)[C@@H]1CC2(CC2)CN1C(=O)C1(O)CCCCC1)C(=O)COC(F)(F)F` [Compound 424, (S)-5-(l-hydroxycyclohexane-1-carbonyl)-N-((S)-3-oxo-1-((S)-2-oxopyrrolidin-3-yl)-4-(trifluoromethoxy)butan-2-yl)-5-azaspiro[2.4]heptane-6-carboxamide] and `CC1(NC(=O)C(=O)N2CC3(CC3)C[C@H]2C(=O)N[C@@H](C[C@@H]2CCNC2=O)C(=O)COC(F)(F)F)CC1` [Compound 571, (S)-5-(2-((l-methylcyclopropyl)-amino)-2-oxoacetyl)-N-((S)-3-oxo-1-((S)-2-oxopyrrolidin-3-yl)-4-(trifluoromethoxy)butan-2-yl)-5-azaspiro[2.4]-heptane-6-carboxamide] fall in the same range of EC50: 0.05 to 0.2 µM for the first, 0.05 to 0.2 µM for the second.

Compared with `CC(=O)N1C[C@H](C(F)(F)F)C[C@H]1C(=O)N[C@@H](C[C@@H]1CCNC1=O)C(=O)COC(F)(F)F` [Compound 724, (2S,4R)-1-acetyl-N-((S)-3-oxo-1-((S)-2-oxopyrrolidin-3-yl)-4-(trifluoromethoxy)butan-2-yl)-4-(trifluoromethyl)pyrrolidine-2-carboxamide], `CC(C)C[C@@H](C)C(=O)N1CC2(CC2)C[C@H]1C(=O)N[C@@H](C[C@@H]1CCNC1=O)C(=O)COC(F)(F)F` [Compound 752, (S)-5-((R)-2,4-dimethylpentanoyl)-N-((S)-3-oxo-1-((S)-2-oxopyrrolidin-3-yl)-4-(trifluoromethoxy)butan-2-yl)-5-azaspiro[2.4]heptane-6-carboxamide] is lower in EC50: 0.05 to 0.2 µM for the first, under 0.05 µM for the second. The second is the more potent here.

`O=C1NCC[C@H]1C[C@H](NC(=O)[C@@H]1CC2(CC2)CN1C(=O)[C@H](O)c1ccc(F)cc1)C(=O)COC(F)(F)F` [Compound 403, (S)-5-((R)-2-(4-fluorophenyl)-2-hydroxyacetyl)-N-((S)-3-oxo-1-((S)-2-oxopyrrolidin-3-yl)-4-(trifluoromethoxy)butan-2-yl)-5-azaspiro[2.4]heptane-6-carboxamide] and `O=C1NCC[C@H]1C[C@H](NC(=O)[C@@H]1CC2(CC2)CN1C(=O)[C@H](O)C1CCC1)C(=O)COC(F)(F)F` [Compound 760, (S)-5-((R)-2-cyclobutyl-2-hydroxyacetyl)-N-((S)-3-oxo-1-((S)-2-oxopyrrolidin-3-yl)-4-(trifluoromethoxy)butan-2-yl)-5-azaspiro[2.4]heptane-6-carboxamide] fall in the same range of EC50: 0.05 to 0.2 µM for the first, 0.05 to 0.2 µM for the second.

`O=C1NCC[C@H]1C[C@H](NC(=O)[C@@H]1[C@H]2CCC[C@H]2CN1C(=O)OC1CCOC1)C(=O)COC(F)(F)F` (stereo partly drawn) [Compound 559, tetrahydrofuran-3-yl (1S,3aR,6aS)-1-(((S)-3-oxo-1-((S)-2-oxopyrrolidin-3-yl)-4-(trifluoromethoxy)butan-2-yl)carbamoyl)-hexahydrocyclo-penta[c]-pyrrole-2(1H)-carboxylate] and `O=C(Nc1c(F)cccc1Cl)C(=O)N1CC2(CC2)C[C@H]1C(=O)N[C@@H](C[C@@H]1CCNC1=O)C(=O)COC(F)(F)F` [Compound 603, (S)-5-(2-((2-chloro-6-fluorophenyl)amino)-2-oxoacetyl)-N-((S)-3-oxo-1-((S)-2-oxo-pyrrolidin-3-yl)-4-(trifluoromethoxy)-butan-2-yl)-5-azaspiro[2.4]heptane-6-carboxamide] fall in the same range of EC50: 0.05 to 0.2 µM for the first, 0.05 to 0.2 µM for the second.

In the case of `CC(C)C[C@H](NC(=O)C(=O)Nc1ccccc1F)C(=O)N[C@@H](C[C@@H]1CCNC1=O)C(=O)COc1ccnc(C(F)(F)F)n1` [Compound 788, N^1-(2-fluorophenyl)-N^2—((S)-4-methyl-1-oxo-1-(((S)-3-oxo-1-((S)-2-oxopyrrolidin-3-yl)-4-((2-(trifluoromethyl)pyrimidin-4-yl)oxy)butan-2-yl)amino)pentan-2-yl)oxalamide], the EC50 is reported as 0.2 to 0.5 µM.
